Results reported in ChEMBL document CHEMBL4819060, “Design, synthesis and assessment of new series of quinazolinone derivatives as EGFR inhibitors along with their cytotoxic evaluation against MCF7 and A549 cancer cell lines” (Bioorg Med Chem Lett, 2021).
pIC50: −log10 of the molar value.

Columns and labels:
A549 = assay: Cytotoxicity against human A549 cells incubated for 2 to 4 hrs by MTT assay; assay type: functional, cell-based
MCF7 [1] = assay: cells; assay type: functional, cell-based; conditions: Homo sapiens
Description: Cytotoxicity against human MCF7 cells incubated for 2 to 4 hrs by MTT assay

MCF7 [2] = assay: Induction of cell cycle arrest in human MCF7 cells assessed as accumulation of cells at S phase at 1.74 uM after 24 hrs by propidium iodide staining-based flow cytometric analysis (reference value: 36.57%); assay type: functional
MCF7 [3] = assay: Induction of cell cycle arrest in human MCF7 cells assessed as accumulation of cells at G0/G1 phase at 1.74 uM after 24 hrs by propidium iodide staining-based flow cytometric analysis (reference value: 52.94%); assay type: functional
[4] = biological target: Epidermal growth factor receptor (Homo sapiens, UniProt P00533)
Description: Inhibition of EGFR (unknown origin)

MCF7 [5] = assay: Induction of apoptosis in human MCF7 cells assessed as total apoptotic cells measured after 24 hrs by Annexin V-FITC/propidium iodide staining based flow cytometry assay (reference value: 1.63%); assay type: functional
MCF7 [6] = assay: Induction of apoptosis in human MCF7 cells assessed as late apoptotic cells measured after 24 hrs by Annexin V-FITC/propidium iodide staining based flow cytometry assay (reference value: 0.12%); assay type: functional
MCF7 [7] = assay: Induction of apoptosis in human MCF7 cells assessed as early apoptotic cells measured after 24 hrs by Annexin V-FITC/propidium iodide staining based flow cytometry assay (reference value: 0.32%); assay type: functional
cells = assay type: ADME, cell-based; conditions: Homo sapiens, PCS-800-011
Description: Cytotoxicity against human PCS-800-011 cells

MCF7 [8] = assay: Induction of cell cycle arrest in human MCF7 cells assessed as accumulation of cells at Pre-G1 phase at 1.74 uM after 24 hrs by propidium iodide staining-based flow cytometric analysis (reference value: 1.63%); assay type: functional
MCF7 [9] = assay: Induction of cell cycle arrest in human MCF7 cells assessed as accumulation of cells at G2/M phase at 1.74 uM after 24 hrs by propidium iodide staining-based flow cytometric analysis (reference value: 10.49%); assay type: functional
MCF7 [10] = assay: Induction of apoptosis in human MCF7 cells assessed as necrotic cells measured after 24 hrs by Annexin V-FITC/propidium iodide staining based flow cytometry assay (reference value: 1.19%); assay type: functional
MCF7 [11] = assay: Induction of cell cycle arrest in human MCF7 cells assessed as accumulation of cells at Pre-G1 phase at 4.05 uM after 24 hrs by propidium iodide staining-based flow cytometric analysis (reference value: 1.63%); assay type: functional
MCF7 [12] = assay: Induction of cell cycle arrest in human MCF7 cells assessed as accumulation of cells at G0/G1 phase at 4.05 uM after 24 hrs by propidium iodide staining-based flow cytometric analysis (reference value: 52.94%); assay type: functional
MCF7 [13] = assay: Induction of cell cycle arrest in human MCF7 cells assessed as accumulation of cells at G2/M phase at 4.05 uM after 24 hrs by propidium iodide staining-based flow cytometric analysis (reference value: 10.49%); assay type: functional
MCF7 [14] = assay: Induction of cell cycle arrest in human MCF7 cells assessed as accumulation of cells at S phase at 4.05 uM after 24 hrs by propidium iodide staining-based flow cytometric analysis (reference value: 36.57%); assay type: functional

Sequence of Epidermal growth factor receptor (P00533 whole entry): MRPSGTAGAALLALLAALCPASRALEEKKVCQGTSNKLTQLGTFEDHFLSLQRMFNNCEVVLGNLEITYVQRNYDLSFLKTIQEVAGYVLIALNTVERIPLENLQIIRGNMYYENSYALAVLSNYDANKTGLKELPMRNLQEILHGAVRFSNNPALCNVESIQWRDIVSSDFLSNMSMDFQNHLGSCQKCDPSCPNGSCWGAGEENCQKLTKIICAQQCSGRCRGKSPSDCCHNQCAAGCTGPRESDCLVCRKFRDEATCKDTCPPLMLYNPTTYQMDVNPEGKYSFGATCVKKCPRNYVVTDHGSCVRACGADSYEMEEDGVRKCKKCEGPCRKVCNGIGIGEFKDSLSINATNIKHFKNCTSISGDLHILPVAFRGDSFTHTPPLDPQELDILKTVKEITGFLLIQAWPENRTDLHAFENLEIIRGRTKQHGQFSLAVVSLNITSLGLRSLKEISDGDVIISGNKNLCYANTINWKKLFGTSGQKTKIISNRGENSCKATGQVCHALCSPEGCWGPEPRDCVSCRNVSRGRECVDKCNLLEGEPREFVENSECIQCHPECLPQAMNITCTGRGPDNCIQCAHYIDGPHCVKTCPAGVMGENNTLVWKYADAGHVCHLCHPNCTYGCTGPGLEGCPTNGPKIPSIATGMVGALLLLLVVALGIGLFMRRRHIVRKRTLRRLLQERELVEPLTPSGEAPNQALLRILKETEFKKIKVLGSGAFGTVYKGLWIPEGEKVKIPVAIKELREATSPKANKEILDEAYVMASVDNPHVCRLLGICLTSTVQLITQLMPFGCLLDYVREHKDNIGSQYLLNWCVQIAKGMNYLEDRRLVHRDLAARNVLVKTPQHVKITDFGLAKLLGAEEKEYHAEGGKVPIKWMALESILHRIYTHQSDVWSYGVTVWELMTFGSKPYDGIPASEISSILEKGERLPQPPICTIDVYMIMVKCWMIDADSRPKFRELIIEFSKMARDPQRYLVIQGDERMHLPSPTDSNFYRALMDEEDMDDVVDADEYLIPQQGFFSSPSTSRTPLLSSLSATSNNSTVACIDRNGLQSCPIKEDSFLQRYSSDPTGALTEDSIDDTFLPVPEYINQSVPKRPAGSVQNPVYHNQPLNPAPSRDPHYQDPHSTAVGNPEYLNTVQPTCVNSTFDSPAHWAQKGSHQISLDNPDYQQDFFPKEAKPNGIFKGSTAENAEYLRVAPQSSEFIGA

Structure (SMILES) | pIC50 (MCF7 [1]) | pIC50 [4] | pIC50 (cells) | pIC50 (A549) | further results
COc1ccc(-c2coc3cc(OCC(=O)N/C=C\c4ccc(O)cc4)ccc3c2=O)cc1 |  | 7.48 |  |  | 
CN(C(=O)NCCCl)c1ccc2ncnc(Nc3cccc(Cl)c3)c2c1 |  | 7.09 |  |  | 
CN(/N=N\c1ccc2ncnc(Nc3cccc(Cl)c3)c2c1)C(=O)OCCl |  | 9.41 |  |  | 
O=C(CNc1ccccc1)Nn1c(-c2ccccc2)nc2ccccc2c1=O | 4.82 |  |  | 4.88 | 
O=C(CNc1ccc(Br)cc1)Nn1c(-c2ccccc2)nc2ccccc2c1=O | 4.82 |  |  | 4.60 | 
O=C1N=C(Nn2c(-c3ccccc3)nc3ccccc3c2=O)S/C1=C/c1ccc(O)cc1O | 5.13 | 6.75 | 4.76 | 5.49 | 

Continued, in another order:

pIC50 (MCF7 [1]) | pIC50 [4] | pIC50 (cells) | Structure (SMILES) | pIC50 (A549) | further results
5.36 |  |  | O=C(CNc1ccc(Cl)cc1Cl)Nn1c(-c2ccccc2)nc2ccccc2c1=O | 3.73 | 
5.76 | 7.09 | 4.29 | O=C(CNc1ccc(Cl)cc1)Nn1c(-c2ccccc2)nc2ccccc2c1=O | 5.14 | Activity (MCF7 [2]): 29.47%; Activity (MCF7 [3]): 34.32%; Activity (MCF7 [5]): 37.24%; Activity (MCF7 [6]): 23.65%; Activity (MCF7 [7]): 2.56%; Activity (MCF7 [8]): 37.24%; Activity (MCF7 [9]): 36.21%; Activity (MCF7 [10]): 11.03%
5.42 | 6.87 | 4.50 | COc1ccc(/C=C2/SC(Nn3c(-c4ccccc4)nc4ccccc4c3=O)=NC2=O)cc1 | 5.27 | 
6.00 |  |  | COc1ccc(/C=C2/SC(Nn3c(-c4ccccc4)nc4ccccc4c3=O)=NC2=O)cc1OC | 4.35 | 
5.62 | 6.84 | 4.43 | CCc1ccc(NCC(=O)Nn2c(-c3ccccc3)nc3ccccc3c2=O)cc1 | 5.68 | 
5.39 | 7.18 | 4.35 | O=C1N=C(Nn2c(-c3ccccc3)nc3ccccc3c2=O)S/C1=C/c1ccccc1 | 6.14 | Activity (MCF7 [11]): 26.38%; Activity (MCF7 [5]): 26.38%; Activity (MCF7 [6]): 12.16%; Activity (MCF7 [7]): 4.95%; Activity (MCF7 [10]): 9.27%; Activity (MCF7 [12]): 42.95%; Activity (MCF7 [13]): 29.17%; Activity (MCF7 [14]): 27.88%
5.64 |  |  | O=C1N=C(Nn2c(-c3ccccc3)nc3ccccc3c2=O)S/C1=C/c1ccc(Br)cc1 | 4.67 | 
